For orientation: inhibition means the change of the read-out against control, counted positive when it falls.

Results on one compound are retold here after publication PMC6934184, “Selective DNA-PKcs inhibition extends the therapeutic index of localized radiotherapy and chemotherapy” (The Journal of Clinical Investigation, 2019).

For the test, the target named is T1, CAMK2A (CaMKII alpha) (Homo sapiens, UniProt Q9UQM7).
T1 construct: purchased Thermo Fisher Scientific (Life Technologies) SelectScreen
Kind of test: SelectScreen Z'LYTE. The format is biochemical. The method, boiled down: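 Percent values come from Thermo SelectScreen profiling of NU5455, combining activity and binding assays. CSF1R was run in Z'LYTE format at Km app ATP, and CAMK1 in Adapta format with ATP listed at 10.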

T1 sequence (Q9UQM7 whole entry): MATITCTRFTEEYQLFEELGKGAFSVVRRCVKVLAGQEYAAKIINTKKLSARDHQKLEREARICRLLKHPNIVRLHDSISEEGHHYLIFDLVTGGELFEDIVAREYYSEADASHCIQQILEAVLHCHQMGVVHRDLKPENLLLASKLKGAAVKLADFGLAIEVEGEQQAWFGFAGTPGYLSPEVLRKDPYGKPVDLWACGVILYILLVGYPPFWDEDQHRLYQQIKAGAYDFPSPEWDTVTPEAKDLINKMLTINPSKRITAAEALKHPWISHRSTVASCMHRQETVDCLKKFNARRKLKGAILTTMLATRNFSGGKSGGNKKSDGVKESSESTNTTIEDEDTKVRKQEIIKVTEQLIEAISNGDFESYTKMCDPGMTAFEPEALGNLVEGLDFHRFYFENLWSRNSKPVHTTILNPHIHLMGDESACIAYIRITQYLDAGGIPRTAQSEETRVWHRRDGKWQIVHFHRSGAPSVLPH

For the compound `CN(C(=O)CN1CCOCC1)c1ccc2sc3c(-c4cccc5c(=O)cc(N6CC7CCC(C6)O7)oc45)cccc3c2c1` [NU5455], the inhibition at 1 µM is -0.6%.
